Values after ≈ are worked out from the molar mass of the structure shown.

In series [1] the test system is E. coli CFT073 (UPEC). Description: MIC, standard microdilution assay, growing UPEC. In kind it is cell-based, Escherichia coli. The conditions noted are these: Escherichia coli; E. coli, pH 7.4; CA-MHB; read-out: MIC (μM) CA-MHB. The method, then:
(§1) Minimal inhibitory concentrations (MICs) were determined using a standard microdilution assay protocol. CA-MHB medium buffered with 40 mM HEPES (pH 7.4) was used to determine the MICs for UPEC, P. aeruginosa, and S. aureus. […] MICs for UPEC were also determined in LPM buffered with 30 mM MES (pH 5.5). For S. flexneri, MICs were determined in tryptic soy broth (TSB). The assay was performed in triplicates.
(In general: Broth dilution looks for growth in wells or tubes with falling amounts of substance.)

Series [2] relates to P. aeruginosa DSM1117. In words: MIC, standard microdilution assay, growing P. aeruginosa. In kind it is cell-based, Pseudomonas aeruginosa. As to conditions: Pseudomonas aeruginosa, DSM1117; P. aeruginosa; CA-MHB pH 7.4; read-out: MIC (μM) CA-MHB. The method, then: as §1
For series [3], the system named is S. aureus DSM2569. In words: MIC, standard microdilution assay, growing S. aureus. In kind it is cell-based, Staphylococcus aureus. As to conditions: Staphylococcus aureus, DSM2569; S. aureus; CA-MHB pH 7.4; read-out: MIC (μM) CA-MHB. The method, then: as §1
For series [4], the system named is S. flexneri 5a M90T. Description: MIC in tryptic soy broth, S. flexneri. As to conditions: Shigella flexneri, 5AM90T, read-out: MIC (μM) TSB. In kind it is cell-based, Shigella flexneri. On the procedure: as §1
The subject of series [5] is non-growing UPEC CFT073. Description: Dilution-regrowth assay (screen, hit validation, dose-response) on stationary-phase UPEC. In kind it is cell-based, Escherichia coli. The method, then:
(§2) The cultures were incubated for 24 h in non-baffled Erlenmeyer flasks at 37 °C with shaking at 200 rpm.
The high-throughput screening (HTS) procedure was based on the protocol by Hazan and colleagues[15] and conducted at the Chemical Biology Consortium Sweden (CBCS) screening facility. […] Each plate included eight wells with 200 nl of 10 mM gatifloxacin, finafloxacin, and kanamycin solutions, along with 8-wells containing 200 nl of DMSO as controls. After 24 h incubation,100 μl of the culture was dispensed into each well of the 384-well plates for screening at a final concentration of 20 μM. The plates were sealed with parafilm and incubated at 37 °C for 24 h in closed humidified boxes, with wet paper towels added to prevent evaporation. […] The plates were incubated at 37 °C for 6 h in humidified boxes, then OD600 was measured using a microplate reader.
For hit validation, bacteria were cultivated, and the dilution-regrowth assay was conducted following the same protocol used in the primary screen. Hit compounds were dispensed into 384-well plates using the Echo® (Labcyte) system, with 200, 100, or 50 nl of a 10 mM solution in DMSO added per well, yielding final screening concentrations of 20, 10, and 5 μM, respectively. OD600 values of regrowing samples were normalized to the mean OD600 of the drug-free control. The testing was conducted in two replicates.
For UPEC, dose–response analysis was conducted at the CBCS screening facility. Bacteria were cultivated, and the dilution-regrowth assay was performed according to the HTS protocol. Compounds were dispensed into 384-well plates using the Echo® (Labcyte) system, and regrowth was assessed by measuring OD600 after 6 h of incubation at 37 °C in humidified boxes. Three biological replicates were performed.
(§3) Statistical significance of the drug effects was assessed using a one-way ANOVA followed by Dunnett’s test, comparing each treatment to the drug-free control. Statistical significance of the differences in chemical characteristics between the hit compounds and the Prestwick library was assessed using a Mann–Whitney test. Statistical significance was set at P ≤ 0.05. A five-parameter logistic equation was used for asymmetric sigmoidal curve fitting and for EC50 and IC50 determination. The Venn diagram in Fig. 1F was prepared using BioVenn web application. Characteristics of the chemical and physical properties of Prestwick library compounds were obtained from Supplementary Table S1 from reference. Characteristics of the hit compounds not included in the Prestwick library were retrieved from the PubChem database.

In series [6] the test system is non-growing S. aureus DSM2569. Description: Dilution-regrowth assay (OD600, start-growth-time) on stationary-phase S. aureus. In kind it is cell-based, Staphylococcus aureus. As to conditions: S. aureus. The method, then: The cultures were grown and treated for 24 h in 1:4 CA-MHB (pH 7.4).
This approach allowed us to capture the time when cultures reached a threshold optical density (start-growth-time, SGT[15]).
as §2
For P. aeruginosa and S. aureus, dose–response analysis was conducted in 96-well plates with a 200 μl assay volume, following the procedure used for screening assay validation experiments. […] Stock solutions were prepared and stored according to the manufacturers’ instructions, then diluted in 10% DMSO before use. Cultures were incubated for 24 h in 1:4 diluted CA-MHB medium under the same conditions used for UPEC cultivation. In preliminary experiments, each compound was tested at a concentration of 20 μM in the dilution-regrowth assay with 4 technical replicates. Regrowth was monitored using a microplate reader at 37 °C with continuous shaking, and OD600 was recorded every 20 min. The time at which OD600 exceeded the threshold of 0.12 was recorded as the Start_Growth-Time.
as §3

Series [7] has as its system TC7 cells. In words: TC7 cell viability upon drug exposure, MTS assay. In kind it is cell-based. As to conditions: at the MIC concentrations, 12 h, no bacteria. On the procedure:
TC7 cells were grown to confluence in transparent 96-well cell culture plates (TPP) in the same cell culture medium used for the in vitro infection assay. Just prior to the experiment, the medium was discarded, and the cells were washed twice with sterile PBS to remove any traces of medium or dead cells. […] The plate was incubated at 37 °C in a CO2 incubator for 12 h, under the same conditions as the infection assay.
The 3-(4,5-dimethylthiazol-2-yl)-5-(3-carboxymethoxyphenyl)-2-(4-sulfophenyl)-2H-tetrazolium (MTS) assay was performed using the CellTiter 96® AQueous One Solution Cell Proliferation Assay kit (Promega), according to the manufacturer’s instructions. Briefly, 20 μl of CellTiter 96 AQueous One Solution Reagent was added to each well, and the plate was incubated for 2 h at 37 °C in a CO2 incubator. The OD490 of the samples was measured using a Spark multimode plate reader (Tecan). The raw values were normalized to the control wells incubated with infection buffer only. The experiment was performed in duplicate.
(Tetrazolium assays rely on reduction of a dye to a coloured formazan, in cell work by metabolically active cells.)

Series [8] deals with E. coli CFT073 and BW25113. In words: Semapimod assay: killing and regrowth of stationary-phase E. coli in two media. As to conditions: 1% LB diluted in PBS, 20 and 50 μM, 24 h. In kind it is cell-based, Escherichia coli. On the procedure: E. coli CFT073 and BW25113 were grown in 3 ml of LB at 37 °C, shaking at 200 rpm for 16 h. The overnight cultures were then diluted either 1:100 into 40 ml of 1:4 diluted CA-MHB (40 mM HEPES, pH 7.4) or 1:10,000 into 40 ml of 1% LB in PBS and grown in 125 mL Erlenmeyer flasks for 24 h at 37 °C, shaking at 200 rpm. Following this, 1 ml aliquots of each culture were transferred to 1.5 ml test tubes, and semapimod was added at final concentrations of 20 μM and 50 μM. DMSO was added to drug-free controls. To quantify live bacteria before treatment, a sample of each culture was serially 10-fold diluted into PBS, and 10 μL drops were spot-plated onto LB agar. The closed test tubes were incubated for 24 h at 37 °C without shaking.
After treatment, the samples were diluted 2500-fold in two steps: a 50-fold dilution into PBS, followed by a 50-fold dilution into CA-MHB in a 96-well plate with a total volume of 200 μl per well. The 96-well plate was then incubated in a BioTek Synergy H1 plate reader at 37 °C with continuous shaking at medium speed for 22 h with a lid. OD600 was recorded every 20 min. Additionally, the treated samples were diluted 1:200 into LB in another 96-well plate and incubated in a BioTek Synergy Mx plate reader at 37 °C without shaking for 22 h, with OD600 recorded every hour. […]

Broadly, the MIC is the lowest concentration found to suppress growth. What is called EC50 is the concentration that produces a half-maximal response. On to `[H]/N=C(\N/C(=N/[H])NCCCCCCNC(=N)NC(=N)Nc1ccc(Cl)cc1)Nc1ccc(Cl)cc1` [Chlorhexidine], for which the MIC worked out at 1 µM (≈ 0.505 µg/mL) in series [1], 8 µM (≈ 4.04 µg/mL) in series [2], 2 µM (≈ 1.01 µg/mL) in series [3] and 1 µM (≈ 0.505 µg/mL) in series [4]. The “Regrowth, OD600 at 6h or 8h after dilution into drug-free medium (average)” value came to 0.634 in series [5] (E. coli in 1:4 CA-MHB (pH 7.4), drug concentration 0.25); 0.632 in series [5] (E. coli in 1:4 CA-MHB (pH 7.4), drug concentration 0.5); 0.646 in series [5] (E. coli in 1:4 CA-MHB (pH 7.4), drug concentration 1); 0.634 in series [5] (E. coli in 1:4 CA-MHB (pH 7.4), drug concentration 2.5); 0.636 in series [5] (E. coli in 1:4 CA-MHB (pH 7.4), drug concentration 5); 0.585 in series [5] (E. coli in 1:4 CA-MHB (pH 7.4), drug concentration 10). The “Regrowth, OD600 at 6h or 8h after dilution into drug-free medium (average)” value in series [5] (E. coli in 1:4 CA-MHB (pH 7.4), drug concentration 30) is listed as 0.062; in series [5] (E. coli in LPM (pH 5.5), drug concentration 0.25), 0.602; in series [5] (E. coli in LPM (pH 5.5), drug concentration 0.5) it was 0.598; in series [5] (E. coli in LPM (pH 5.5), drug concentration 1), 0.611; in series [5] (E. coli in LPM (pH 5.5), drug concentration 2.5) it was 0.608; in series [5] (E. coli in LPM (pH 5.5), drug concentration 5), 0.621. The “Regrowth, OD600 at 6h or 8h after dilution into drug-free medium (average)” value in series [5] (E. coli in LPM (pH 5.5), drug concentration 10) was found to be 0.624; in series [5] (E. coli in LPM (pH 5.5), drug concentration 30), 0.633; in series [6] (drug concentration 0.1), 0.684; in series [6] (drug concentration 0.5), 0.683; in series [6] (drug concentration 2.5), 0.676; in series [6] (drug concentration 10), 0.247. The EC50 in series [5] (Escherichia coli, E. coli, pH 7.4, regrowth delay of non-growing bacteria, 1:4 CA-MHB, 24 h treatment, OD600 6 h after 2500-fold dilution, read-out: EC50) was determined as 17.5 µM; in series [6] (Staphylococcus aureus, DSM2569, regrowth delay of non-growing bacteria, 1:4 CA-MHB pH 7.4, 24 h treatment, OD600 8 h after dilution, read-out: EC50) it was 19.4 µM. In addition, the “activity against non-growing UPEC in LPM (pH 5.5) compared to 1:4 CA-MHB (pH 7.4)” value in series [5] (regrowth delay and killing, Figs. 2 and 3) was “active at pH 7.4 and completely inactive in the acidic medium”. Further, the “toxicity to TC7 epithelial cells” value in series [7] is given as “toxic”.

`C/C(=N\NC(=N)N)c1cc(NC(=O)CCCCCCCCC(=O)Nc2cc(/C(C)=N/NC(=N)N)cc(/C(C)=N/NC(=N)N)c2)cc(/C(C)=N/NC(=N)N)c1` [semapimod]: the “activity in the dilution-regrowth screen” value in series [5] (non-growing UPEC, 20 μM) is recorded as “not among our hits”. In series [8], the “bactericidal activity on stationary-phase E. coli” value is “strong bactericidal activity”.

Source of the values: publication PMC11992225, “Antibacterial compounds against non-growing and intracellular bacteria” (npj Antimicrobials and Resistance, 2025).
